In US20140186875A1, “NOVEL OPTICAL LABELING MOLECULES FOR PROTEOMICS AND OTHER BIOLOGICAL ANALYSIS” (Montana State University, priority 2007, published 2014):

Legend:
[1] = Optical properties of the dyes (absorbance, emission, extinction coefficient, quantum efficiency); type: physicochemical
[2] = system: Glutathione S Transferase Omega1—GSTO1; test: Differential 2D gel analysis of developing rat brain proteins raised on high and low docosahexaenoic acid; type: in vivo; conditions: DHA enriched diet compared with adequate control diet, cytosolic brain fraction
Protocol: Each forebrain was ground using a pestle and mortar, previously brought to liquid nitrogen temperature in a sealed plastic bag with positive dry nitrogen gas pressure. After grinding of the tissue at liquid nitrogen temperature, […] sample of cell lysis buffer containing 20 mM Bicine, 5 mM magnesium acetate, 0.5% Nonidet P-40 and Roche Complete protease inhibitor—mini EDTA free, were added to about a 100 mg sample and mixed well in a 2 ml microcentrifuge tube. Sample fractionation—Crude nuclear fraction (P1) was removed by sedimentation at 1000×g for 10 min at room temp. The supernatant (S1) was removed and was ultra-centrifuged at 100,000×g at 4° C. for an hour in 2 ml polycarbonate tubes in a swinging bucket rotor. The cytosolic fraction S2 was separated. […] Protein concentrations of the cytosolic and membrane organelle fractions were assessed, using the Bio-Rad RCDC assay. […]
1st dimension separation—the sample was spread in a lane of a Bio-Rad Protean isoelectric focusing (IEF) cell tray, an 18 cm 3-10 non-linear IPG strip, or 3-7, or 6-11 IEF strip was put on top of it, covered with mineral oil and allowed to passively re-hydrate for one hr. […] The IPG strips were then transferred to an Ettan IPGphor and covered with mineral oil for monitored iso-electric focusing as follows, 3:30 hrs 300V, 2:30 hrs 1000V, 2:30 hrs 2500V and 7:30 hrs 3500V. […]

Compound	ε [1]	λ(abs) [1]	λ(ems) [1]	down-regulation of spot 2 (GSTO1) [2]	up-regulation of spot 1 (GSTO1) [2]	QE (QY) [1]
CN1/C(=C/C2=C([O-])C(=C/C3=[N+](C)c4ccccc4C3(C)C)/C2=O)C(C)(C)c2ccccc21 [Compound 220]	280000 1·cm^−1·mol^−1	629 nm	640 nm	–	–	–
CC/C=C\C/C=C\C/C=C\C/C=C\C/C=C\C/C=C\CCC(=O)O [DHA, Docosahexaenoic acid]	–	–	–	1.7	2.5	–
COc1cc(C(C)O)c([N+](=O)[O-])cc1OCCN(C)CCNC(=O)C(CS(=O)(=O)[O-])NC1=C(/C=C2/N(C)c3ccccc3C2(C)C)C(=O)/C1=C\C1=[N+](C)c2ccccc2C1(C)C (centres unmarked) [Compound 227]	101400 1·cm^−1·mol^−1	644 nm	657 nm	–	–	2.9%
COc1cc(C(C)OC(=O)Oc2ccc([N+](=O)[O-])cc2)c([N+](=O)[O-])cc1OCCNC(=O)C(CS(=O)(=O)[O-])NC1=C(/C=C2/N(C)c3ccccc3C2(C)C)C(=O)/C1=C\C1=[N+](C)c2ccccc2C1(C)C (centres unmarked) [Compound 230]	79400 1·cm^−1·mol^−1	646 nm	661 nm	–	–	3.3%
CN(CCCCCC(=O)O)CCNC(=O)C(CS(=O)(=O)[O-])NC1=C(/C=C2/N(C)c3ccccc3C2(C)C)C(=O)/C1=C\C1=[N+](C)c2ccccc2C1(C)C (centres unmarked) [Compound 222]	127300 1·cm^−1·mol^−1	644 nm	657 nm	–	–	2.9%
